Converted amounts (≈) assume the structure as drawn. Where two headings read alike, the source gives them in different places.
How the values were obtained:
An + Pf = experiment: Fungal efficacy on dry paint film (Modified ASTM 5590); assay type: cell-based, Aspergillus niger, Penicillium funiculosum; conditions: for MIC: total actives in paint, read-out: Total conc (minimum inhibitory concentration chosen for SI)
Protocol: (§1) A single biocide or blend of biocides was post added into white acrylic latex paint free of biocides to give a maximum total active ingredient/s concentration tested. This paint was then diluted with a biocide free acrylic latex paint to give targeted concentrations for the testing. Depending on the type of biocide blends tested, the total biocides concentrations varies from 400 to 3300 ppm. After biocides addition or dilution, each sample was hand mixed for at least a minute until uniformity was achieved. Each of the paint samples as well as a control sample (containing no biocide) were used to prepare films on black plastic-vinyl chloride/acetate copolymer panels (Leneta Company, Mahwah, N.J.) using a 0.0762 mm (3 mil) bird bar applicator. The panels were thoroughly dried for at least 2 days avoiding direct exposure to sunlight. Square discs (0.5 inch^2; 1.27 cm^2) were cut out from each panel and were used as the substrate for fungal and algal efficacy tests. This sample size allowed for an agar border when the sample disc was placed into the well of the test plate. Each sample was tested in duplicate.
(§2) The appropriate media (BOLD'S 3N for Chlorophytes, BG-11 for Cyanobacteria, and PDA for fungi) were used to support microbial growth. The test plates were maintained at room temp (25° C.-26° C.), in a cycled light-dark environment, for four weeks for algae. Plates for fungal challenge tests were maintained at 30° C. for four weeks. At the end of the incubation period the samples were scored for percent area covered by visible microbial growth.
(§3) ASTM 5590 is a standard accelerated test method for determining resistance of various coatings (including paints) to fungal defacement. To accommodate for high-throughput screening, this method was scaled down from petri plates to 6-well plates. To set up the test, an agar plug was placed at the bottom of each well of the sterile 6-well plate. A single coupon was placed with a pair of sterile forceps at the center of the agar plug (on top) with the painted surface facing upwards. Fungal inoculums were prepared by mixing equal concentrations (approximately 1×10^6 cfu/ml) and equal volumes (depending on number of samples to be tested) of like growing organisms. For this synergy study, three pools of mixed fungi were prepared as the test inoculum. Cladosporium herbarum was mixed with Trichoderma viride, Aspergillus niger was mixed with Penicillium funiculosum and Alternaria alternata was mixed with Aureobasidium pullulans. Each well was inoculated with 400 microliter of organism mixture (approximately 1×10^6 cfu/ml) making sure that the whole surface (paint film as well as the agar surrounding it) was evenly covered. The plates were incubated at 30° C. in presence of moisture, for a period of four weeks. The total percent area covered was evaluated and recorded at the end of each week and recorded in increments of 5%.
(§4) The SI is calculated based on F. C. Kull et.
(§5) NE=no end point at the concentration tested that will meet the percent inhibition criteria set in each SI calculation.

TV + Ch = experiment: as above; assay type: cell-based, Trichoderma viride, Cladosporium herbarum; conditions: four weeks
Protocol: as §1, §2, §3, §4

Gs + Os = experiment: Algal efficacy on dry paint film (Modified ASTM 5589); assay type: cell-based, Gloeocapsa sp. and Oscillatoria sp.; conditions: for MIC: total actives in paint, read-out: Total conc (minimum inhibitory concentration chosen for SI)
Protocol: as §1, §2
(§6) ASTM 5589 is a standard accelerated test method for determining resistance of various coatings (including paints) to algal defacement. To accommodate for high-throughput screening, this method was scaled down from petri plates to 6-well plates. A single coupon was placed with a pair of sterile forceps at the center of the agar plug (on top) with the painted surface facing upwards. Algal inoculums were prepared by mixing equal concentrations (approximately 1×10^6 cfu/ml) and equal volumes (depending on number of samples to be inoculated) of like growing organisms.
(§7) In this synergy study, three pool of mixed algae were prepared as the test inoculum, Gloeocapsa sp. and Oscillatoria sp. a mix of cyanobacteria grown on BG-11 media; Chlorella sp., Chlorella kessleri, and Nostoc commune are unicellular chlorphytes that were mixed and grown on Bold media; Trentepohlia aurea, Tretepohlia odorata, and Calotrix parientina are filamentous algae that were mixed and grown on Bold media.
(§8) Each well that contained a tested coupon was inoculated with 400 μl of organism mixture (approximately 1×10^6 cfu/ml) making sure that the whole surface (paint film as well as the agar surrounding it) was evenly covered. The plates were incubated at room temp (25° C.-26° C.) with cyclic exposure to light (OTT-Lite model #OTL4012P, 40 Watt, 26 KLumen) and dark phases, for a period of four weeks. The total area covered was evaluated at the end of each week according to percent area covered in 5% increments.
as §4, §5

Aa + Ap = experiment: Fungal efficacy on dry paint film (Modified ASTM 5590); assay type: cell-based, Alternaria alternata, Aureobasidium pullulans; conditions: four weeks
Protocol: as §1, §2, §3, §4

[1] = tested on: marine algae (Skeletonema costatum); conditions: cited from earlier work
[2] = cited from earlier work
[3] = tested on: diatom (Navicula pelliculosa); conditions: 7 day; cited from earlier work
Cp + To + Ta = experiment: Algal efficacy on dry paint film (Modified ASTM 5589); assay type: cell-based; conditions: for Total conc (minimum inhibitory concentration chosen for SI): total actives in paint
Protocol: as §1, §2, §6, §7, §8, §4, §5

Cs + Ck + Nc = experiment: as above; assay type: cell-based, Chlorella sp., Chlorella kessleri, and Nostoc commune; conditions: for MIC: Nostoc commune, total actives in paint, read-out: Total conc (minimum inhibitory concentration chosen for SI)
Protocol: as §1, §2, §6, §7, §8, §4, §5

[4] = tested on: green algae (Selenastrum capricornutum); conditions: cited from earlier work; for EbC50: median effective concentration for biomass
[5] = tested on: blue-green algae (Anabaena flos-aquae); conditions: 7 day; cited from earlier work
ApCh = experiment: Fungal efficacy on dry paint film (Modified ASTM 5590); assay type: cell-based, Aureobasidium pullulans, Cladosporium herbarum; conditions: for % Inhibition: at the total conc; for MIC: total actives in paint, read-out: Total conc (minimum inhibitory concentration chosen for SI)
Protocol: as §1, §2
as §3, with “Each well was inoculated with 400 microliter of organism mixture (approximately 1×10^6 cfu/ml) making sure that the whole surface (paint film as well as the agar surrounding it) was evenly covered. The plates were incubated at 30° C. in presence of moisture, for a period of four weeks.” left out
The SI is calculated based on F. C. […]

AaTv = experiment: as above; assay type: cell-based, Alternaria alternata, Trichoderma viride; conditions: for % Inhibition: at the total conc; for MIC: total actives in paint, read-out: Total conc (minimum inhibitory concentration chosen for SI)
[6] = Zinc Glyphosate with DCOIT study, at the total conc
[7] = Zinc Glyphosate with DCOIT study
[8] = Zinc Glyphosate with OIT study, at the total conc
[9] = Zinc Glyphosate with OIT study, NE=no end point at the concentration tested

For Zinc Glyphosate, the “% Inhibition” value (An + Pf; 750 ppm in paint, four weeks) was 20%, the “% Inhibition” value (An + Pf; 1500 ppm in paint, four weeks) was 27.5% and the “% Inhibition” value (An + Pf; 2500 ppm in paint, four weeks) was 30%. The “% Inhibition” value (TV + Ch; 750 ppm in paint) was 50%, the “% Inhibition” value (TV + Ch; 1500 ppm in paint) was 75% and the “% Inhibition” value (TV + Ch; 2500 ppm in paint) was 90%. The “% Inhibition” value (Gs + Os; 750 ppm in paint, four weeks) was 15%, the “% Inhibition” value (Gs + Os; 1500 ppm in paint, four weeks) was 72.5% and the “% Inhibition” value (Gs + Os; 2500 ppm in paint, four weeks) was 90%. For the same compound, the “% Inhibition” value (Aa + Ap; 1500 ppm in paint) was 47.5% and the “% Inhibition” value (Aa + Ap; 2500 ppm in paint) was 70%.

In the case of `O=C(O)CNCP(=O)(O)O` [Glyphosate, N-(phosphonomethyl)glycine], the “% Inhibition” value (An + Pf; 750 ppm in paint, four weeks) is reported as 0%, the “% Inhibition” value (An + Pf; 1500 ppm in paint, four weeks) is reported as 5% and the “% Inhibition” value (An + Pf; 2500 ppm in paint, four weeks) is reported as 10%. The “% Inhibition” value (TV + Ch; 750 ppm in paint) was 2.5%, the “% Inhibition” value (TV + Ch; 1500 ppm in paint) was 50% and the “% Inhibition” value (TV + Ch; 2500 ppm in paint) was 72.5%. For the same compound, the EC50 ([1]; 96 hr) was 1.3 µg/mL (≈ 7.69 µM), the EC50 ([1]; 7 day) was 0.64 µg/mL (≈ 3.79 µM) and the solubility in water [2] was “relatively high”. For the same compound, the EC50 [3] was 42 µg/mL (≈ 248 µM), the “% Inhibition” value (Cp + To + Ta; 750 ppm in paint, four weeks) was 0% and the “% Inhibition” value (Cp + To + Ta; 1500 ppm in paint, four weeks) was 10%. The “% Inhibition” value (Cp + To + Ta; 2500 ppm in paint, four weeks) was 7.5%, the “% Inhibition” value (Cs + Ck + Nc; 750 ppm in paint, four weeks) was 37.5% and the “% Inhibition” value (Cs + Ck + Nc; 1500 ppm in paint, four weeks) was 60%. For the same compound, the “% Inhibition” value (Cs + Ck + Nc; 2500 ppm in paint, four weeks) was 80%, the “% Inhibition” value (Gs + Os; 750 ppm in paint, four weeks) was 15% and the “% Inhibition” value (Gs + Os; 1500 ppm in paint, four weeks) was 72.5%. The “% Inhibition” value (Gs + Os; 2500 ppm in paint, four weeks) was 90%, the “% Inhibition” value (Aa + Ap; 750 ppm in paint) was 7.5% and the “% Inhibition” value (Aa + Ap; 1500 ppm in paint) was 20%. The “% Inhibition” value (Aa + Ap; 2500 ppm in paint) was 67.5%, the EbC50 ([4]; 72 hr) was 485 mg/L and the ErC50 ([4]; 72 hr, median effective concentration for growth rate) was 460 mg/L. For the same compound, the EbC50 ([4]; 7 day) was 13.8 mg/L and the EC50 [5] was 15 µg/mL (≈ 88.7 µM).

In the case of `CCCCCCCCn1sc(Cl)c(Cl)c1=O` [DCOIT, 4,5-dichloro-2-n-octyl-4-isothiazolin-3-one], the “% Inhibition” value (An + Pf; [6]) is reported as 80%, the MIC (An + Pf; [7]) is reported as 1150 µg/mL and the “% Inhibition” value (An + Pf; [8]) is reported as 50%. For the same compound, the MIC (An + Pf; Zinc Glyphosate with OIT study) was 450 µg/mL, the “% Inhibition” value (Cp + To + Ta; [6]) was 80% and the “Total conc (minimum inhibitory concentration chosen for SI)” value (Cp + To + Ta; [7]) was 575 ppm. The “% Inhibition” value (Cp + To + Ta; [8]) was 80%, the “Total conc (minimum inhibitory concentration chosen for SI)” value (Cp + To + Ta; Zinc Glyphosate with OIT study) was 1350 ppm and the “% Inhibition” value (ApCh; [7]) was 40%. For the same compound, the MIC (ApCh; [7]) was 575 µg/mL, the “% Inhibition” value (ApCh; Zinc Glyphosate with OIT study) was 40% and the MIC (ApCh; [9]) was 900 µg/mL. The MIC (Cs + Ck + Nc; [7]) was 575 µg/mL, the MIC (Cs + Ck + Nc; Zinc Glyphosate with OIT study) was 900 µg/mL and the “% Inhibition” value (Cs + Ck + Nc; [6]) was 20%. The “% Inhibition” value (Cs + Ck + Nc; [8]) was 100%, the “% Inhibition” value (AaTv; [7]) was 40% and the MIC (AaTv; [7]) was 288 µg/mL (≈ 1020 µM). For the same compound, the “% Inhibition” value (AaTv; Zinc Glyphosate with OIT study) was 100%, the MIC (AaTv; [9]) was 450 µg/mL (≈ 1590 µM) and the “% Inhibition” value (Gs + Os; [6]) was 60%. The MIC (Gs + Os; [7]) was 826 µg/mL, the “% Inhibition” value (Gs + Os; [8]) was 80% and the MIC (Gs + Os; [9]) was 900 µg/mL.

Reference: patent publication US8507408B2 (Dow Global Technologies LLC, priority 2010, dated 2013)
